# PubChem BioAssay (NCI)
#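 In this assay, cells in 96-well plates receive the compound at five concentrations for 48 hours. Endpoints are linearly interpolated between the surrounding concentrations. The concentration for full growth arrest is given as TGI.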
# Experiments:
# Test in all cases: NCI-60 cell line screen, 48 h
# SF-539 CNS = system: SF-539 CNS
# T-47D breast = system: T-47D breast
# IGROV1 ovarian = system: IGROV1 ovarian
# SR leukemia = system: SR leukemia
# SF-295 CNS = system: SF-295 CNS
# MDA-N = system: MDA-N
# ACHN renal = system: ACHN renal
# RXF 393 renal = system: RXF 393 renal
# HOP-62 NSCLC = system: HOP-62 NSCLC
# HOP-92 NSCLC = system: HOP-92 NSCLC
# SF-268 CNS = system: SF-268 CNS
# OVCAR-5 ovarian = system: OVCAR-5 ovarian
# SK-MEL-28 melanoma = system: SK-MEL-28 melanoma
# BT-549 breast = system: BT-549 breast
# A549 NSCLC = system: A549 NSCLC
# MDA-MB-231 breast = system: MDA-MB-231 breast
# CCRF-CEM leukemia = system: CCRF-CEM leukemia
# SK-MEL-5 melanoma = system: SK-MEL-5 melanoma
# COLO 205 colon = system: COLO 205 colon
# MDA-MB-435 = system: MDA-MB-435
# 786-0 renal = system: 786-0 renal
# UO-31 renal = system: UO-31 renal
# NCI-H522 lung = system: NCI-H522 lung
# SN12C renal = system: SN12C renal
# RPMI-8226 leukemia = system: RPMI-8226 leukemia
# UACC-257 melanoma = system: UACC-257 melanoma
# EKVX NSCLC = system: EKVX NSCLC
# CAKI-1 renal = system: CAKI-1 renal
# OVCAR-4 ovarian = system: OVCAR-4 ovarian
# SW-620 colon = system: SW-620 colon
# HCT-116 colon = system: HCT-116 colon
# OVCAR-3 ovarian = system: OVCAR-3 ovarian
# SNB-75 CNS = system: SNB-75 CNS
# NCI-H226 lung = system: NCI-H226 lung
# DU-145 prostate = system: DU-145 prostate
# MOLT-4 leukemia = system: MOLT-4 leukemia
# SK-MEL-2 melanoma = system: SK-MEL-2 melanoma
# KM12 colon = system: KM12 colon
# NCI-H23 lung = system: NCI-H23 lung
# TK-10 renal = system: TK-10 renal
# K-562 leukemia = system: K-562 leukemia
# NCI/ADR-RES ovarian = system: NCI/ADR-RES ovarian
# HCC-2998 colon = system: HCC-2998 colon
# MALME-3M melanoma = system: MALME-3M melanoma
# HT29 colon = system: HT29 colon
# OVCAR-8 ovarian = system: OVCAR-8 ovarian
# HL-60(TB) leukemia = system: HL-60(TB) leukemia
# U251 CNS = system: U251 CNS
# LOX IMVI melanoma = system: LOX IMVI melanoma
# MCF7 breast = system: MCF7 breast
# NCI-H460 lung = system: NCI-H460 lung
# SK-OV-3 ovarian = system: SK-OV-3 ovarian
# PC-3 prostate = system: PC-3 prostate
# M14 melanoma = system: M14 melanoma
# SNB-19 CNS = system: SNB-19 CNS
# HCT-15 colon = system: HCT-15 colon
# A498 renal = system: A498 renal
# UACC-62 melanoma = system: UACC-62 melanoma
structure (smiles),measurement,setting,value
Cc1cc(C)nc(NS(=O)(=O)c2ccc(NNc3c4ccccc4nc4c(C(=O)Nc5ccc(S(=O)(=O)N=C(N)N)cc5)cccc34)cc2)n1,TGI,SF-539 CNS,> 100 µM
same,TGI,T-47D breast,> 100 µM
same,TGI,IGROV1 ovarian,> 100 µM
same,TGI,SR leukemia,76.1 µM
same,TGI,SF-295 CNS,> 100 µM
same,TGI,MDA-N,> 100 µM
same,TGI,ACHN renal,> 100 µM
same,TGI,RXF 393 renal,> 100 µM
same,TGI,HOP-62 NSCLC,> 100 µM
same,TGI,HOP-92 NSCLC,> 100 µM
same,TGI,SF-268 CNS,> 100 µM
same,TGI,OVCAR-5 ovarian,> 100 µM
same,TGI,SK-MEL-28 melanoma,85 µM
same,TGI,BT-549 breast,> 100 µM
same,TGI,A549 NSCLC,> 100 µM
same,TGI,MDA-MB-231 breast,> 100 µM
same,TGI,CCRF-CEM leukemia,98 µM
same,TGI,SK-MEL-5 melanoma,> 100 µM
same,TGI,COLO 205 colon,> 100 µM
same,TGI,MDA-MB-435,> 100 µM
same,TGI,786-0 renal,> 100 µM
same,TGI,UO-31 renal,> 100 µM
same,TGI,NCI-H522 lung,> 100 µM
same,TGI,SN12C renal,> 100 µM
same,TGI,RPMI-8226 leukemia,> 100 µM
same,TGI,UACC-257 melanoma,> 100 µM
same,TGI,EKVX NSCLC,> 100 µM
same,TGI,CAKI-1 renal,> 100 µM
same,TGI,OVCAR-4 ovarian,> 100 µM
same,TGI,SW-620 colon,> 100 µM
same,TGI,HCT-116 colon,> 100 µM
same,TGI,OVCAR-3 ovarian,96.8 µM
same,TGI,SNB-75 CNS,> 100 µM
same,TGI,NCI-H226 lung,> 100 µM
same,TGI,DU-145 prostate,> 100 µM
same,TGI,MOLT-4 leukemia,> 100 µM
same,TGI,SK-MEL-2 melanoma,61.5 µM
same,TGI,KM12 colon,> 100 µM
same,TGI,NCI-H23 lung,> 100 µM
same,TGI,TK-10 renal,> 100 µM
same,TGI,K-562 leukemia,> 100 µM
same,TGI,NCI/ADR-RES ovarian,> 100 µM
same,TGI,HCC-2998 colon,> 100 µM
same,TGI,MALME-3M melanoma,> 100 µM
same,TGI,HT29 colon,77.7 µM
same,TGI,OVCAR-8 ovarian,> 100 µM
same,TGI,HL-60(TB) leukemia,> 100 µM
same,TGI,U251 CNS,96.8 µM
same,TGI,LOX IMVI melanoma,> 100 µM
same,TGI,MCF7 breast,> 100 µM
same,TGI,NCI-H460 lung,> 100 µM
same,TGI,SK-OV-3 ovarian,> 100 µM
same,TGI,PC-3 prostate,> 100 µM
same,TGI,M14 melanoma,> 100 µM
same,TGI,SNB-19 CNS,> 100 µM
same,TGI,HCT-15 colon,> 100 µM
COc1cc(/C=C2/SC(c3ccccc3)N(c3cc(Cl)ccc3Cl)C2=O)cc(OC)c1OC (configuration not stated),TGI,T-47D breast,> 100 µM
same,TGI,IGROV1 ovarian,> 100 µM
same,TGI,SR leukemia,> 100 µM
same,TGI,SF-295 CNS,> 100 µM
same,TGI,MDA-N,37.6 µM
same,TGI,ACHN renal,> 100 µM
same,TGI,RXF 393 renal,> 100 µM
same,TGI,A498 renal,> 100 µM
same,TGI,HOP-62 NSCLC,> 100 µM
same,TGI,HOP-92 NSCLC,> 100 µM
same,TGI,OVCAR-5 ovarian,> 100 µM
same,TGI,SK-MEL-28 melanoma,> 100 µM
same,TGI,BT-549 breast,> 100 µM
same,TGI,A549 NSCLC,> 100 µM
same,TGI,MDA-MB-231 breast,> 100 µM
same,TGI,CCRF-CEM leukemia,> 100 µM
same,TGI,SK-MEL-5 melanoma,> 100 µM
same,TGI,COLO 205 colon,> 100 µM
same,TGI,MDA-MB-435,61.1 µM
same,TGI,786-0 renal,> 100 µM
same,TGI,UO-31 renal,> 100 µM
same,TGI,NCI-H522 lung,> 100 µM
same,TGI,SN12C renal,> 100 µM
same,TGI,RPMI-8226 leukemia,> 100 µM
same,TGI,UACC-257 melanoma,> 100 µM
same,TGI,EKVX NSCLC,> 100 µM
same,TGI,CAKI-1 renal,90.8 µM
same,TGI,OVCAR-4 ovarian,> 100 µM
same,TGI,SW-620 colon,> 100 µM
same,TGI,HCT-116 colon,> 100 µM
same,TGI,OVCAR-3 ovarian,> 100 µM
same,TGI,SNB-75 CNS,> 100 µM
same,TGI,NCI-H226 lung,> 100 µM
same,TGI,DU-145 prostate,> 100 µM
same,TGI,MOLT-4 leukemia,> 100 µM
same,TGI,SK-MEL-2 melanoma,> 100 µM
same,TGI,KM12 colon,> 100 µM
same,TGI,NCI-H23 lung,> 100 µM
same,TGI,TK-10 renal,> 100 µM
same,TGI,K-562 leukemia,> 100 µM
same,TGI,NCI/ADR-RES ovarian,> 100 µM
same,TGI,HCC-2998 colon,> 100 µM
same,TGI,MALME-3M melanoma,> 100 µM
same,TGI,HT29 colon,> 100 µM
same,TGI,OVCAR-8 ovarian,> 100 µM
same,TGI,HL-60(TB) leukemia,> 100 µM
same,TGI,U251 CNS,> 100 µM
same,TGI,LOX IMVI melanoma,> 100 µM
same,TGI,MCF7 breast,> 100 µM
same,TGI,NCI-H460 lung,> 100 µM
same,TGI,SK-OV-3 ovarian,> 100 µM
same,TGI,PC-3 prostate,> 100 µM
same,TGI,UACC-62 melanoma,> 100 µM
same,TGI,M14 melanoma,> 100 µM
same,TGI,SNB-19 CNS,> 100 µM
same,TGI,HCT-15 colon,> 100 µM
